Results on 11 compounds are retold here after publication PMC12113431, “Chartarlactams U-X: Novel Phenylspirodrimanes from a Marine Derived Fungus Stachybotrys sp. SZU-W23 with Anti-Inflammatory Activity Mediated by the NF-κB/ROS Signaling Pathways” (Marine Drugs, 2025).

Read-outs that look alike come from different tables or passages of the source.

For series [1], the system named is nitric oxide production in LPS-stimulated RAW 264.7 macrophages. Nature of the series: Inhibition of NO production in LPS-stimulated RAW 264.7 macrophages (Griess reaction). Type of series: cell-based, mouse. The settings on record: for IC50: Mus musculus, read-out: IC50, inhibition of NO production; for NO production inhibition at 10 μM: test concentration of 10 μM; for NO production inhibition at 10 μM / NO-inhibitory effect: RAW 264.7, LPS; for NO-inhibitory effect: tested at 3 to 30 μM. Here is the method: RAW 264.7 macrophages were seeded into 96-well plates at a density of 2.0 × 10^5 cells/well in complete DMEM and allowed to adhere for 2 h at 37 °C under 5% CO2. The cells were pretreated with compounds 1–15 (3–30 μM) for 2 h, followed by stimulation with ultrapure lipopolysaccharide (LPS; 100 ng/mL, from E. coli O111:B4, Sigma-Aldrich) for 24 h. NO production was assessed via the Griess reaction by quantifying nitrite (NO2^−) accumulation in culture supernatants.
Briefly, 50 μL of the cell-free supernatant from each well was mixed with 50 μL of 1% sulfanilamide (dissolved in 5% phosphoric acid; Griess Reagent A, Beyotime Biotechnology, Shanghai, China) and incubated for 5 min at room temperature. Subsequently, 50 μL of 0.1% N-1-naphthylethylenediamine dihydrochloride (Griess Reagent B, Beyotime Biotechnology) was added, followed by 5 min incubation in the dark. The absorbance was measured at 540 nm with a reference wavelength of 630 nm using a Synergy H1 microplate reader (BioTek Instruments, Winooski, VT, USA). Nitrite concentrations were interpolated from a sodium nitrite standard curve (0–100 μM; R^2 > 0.99).

Series [2] relates to NO production in LPS-activated RAW264.7 murine macrophages. Also noted: method as in doi:10.1039/C7RA09859F. The settings on record: read-out: IC50, inhibition of NO production; cited from earlier work.
The test system of a further series is RAW 264.7 cells. The series can be described thus: Cytotoxicity, CCK-8 cell viability assay. The settings on record: for cytotoxicity (qualitative): tested at 3, 10 and 30 μM. Type of series: cell-based, mouse. The protocol:
RAW 264.7 cells were seeded into 96-well plates at a density of 1.0 × 10^5 cells/well (100 μL/well) in complete DMEM (high-glucose DMEM supplemented with 10% FBS, 100 U/mL penicillin, and 100 μg/mL streptomycin) and allowed to adhere for 24 h at 37 °C under 5% CO2. Subsequently, serial dilutions of compounds (0.3–30 μM in DMSO, with the final DMSO concentration < 0.1%) were added to respective wells and incubated for 24 h. Cell viability was assessed using the CCK-8 assay (Dojindo Laboratories, Kumamoto, Japan): 10% (v/v) CCK-8 reagent was added to each well, followed by incubation for 30 min at 37 °C. The absorbance was measured at 450 nm with a reference wavelength of 650 nm using a microplate reader (BioTek Instruments, Winooski, VT, USA).
In general terms: Formazan colour is commonly taken as a measure of viable cells.

The subject of series [3] is iNOS mRNA expression in RAW 264.7 cells. The series can be described thus: LPS-induced iNOS mRNA expression by RT-qPCR. Type of series: cell-based, mouse. The settings on record: RAW 264.7, 0.3–10 μM, LPS 24 h. Here is the method: (§1) RAW 264.7 cells (2 × 10^6 cells) were seeded into 30 mm petri dishes. After the cells adhered to the dishes for 2 h, compound 10 at concentrations of 0.3, 1, 3, and 10 μM was added, and the cells were cultured in an incubator at 37 °C for 2 h. Then, 100 ng/mL of LPS was added and the cells were co-cultured for 24 h. The cells were collected into 1.5 mL EP tubes, and total RNA was extracted using an RNA extraction kit. Then, the concentration of the total RNA was determined with a nucleic acid quantifier, and the RNA was reverse transcribed into the corresponding cDNA.
(§2) According to the operation procedures of the rapid reverse transcription kit, 1 μg of total RNA and 1 μL of dNTP Mixture were first added into a PCR tube. Then, RNase-free dH2O was added until the total volume of the solution reached 10 μL. After mixing evenly, the mixture was incubated at 65 °C for 5 min and then immediately placed on ice for ice-bathing. Subsequently, 4 μL of 5 × PrimeScript® Buffer, 0.5 μL of RNase Inhibitor (40 U/μL), 1 μL of PrimeScript® RTase (200 U/μL), and 4.5 μL of RNase Free dH2O were added to make the entire solution system reach 20 μL. […]
(§3) The reaction system mixture was prepared using a real-time quantitative PCR kit. […]

In series [4] the test system is ROS production in RAW264.7 cells. Nature of the series: LPS-induced ROS production (DCFH-DA fluorescent probe). Type of series: cell-based, mouse. As to conditions: RAW264.7, LPS 24 h, concentrations that are not cytotoxic (0.3–10 μM). The protocol:
RAW264.7 cells were seeded into black 96-well plates at a density of 5 × 10^4 cells per well and cultured for 2 h until they adhered to the plate. Subsequently, compound 10 at concentrations of 0.3, 1, 3, and 10 μM was added respectively, and the cells were cultured for another 2 h. Then, 100 ng/mL of LPS was added and the cells were co-cultured in an incubator at 37 °C for 24 h. After that, the production of ROS was detected. The cell culture medium in the 96-well plates was removed, and then […] of the fluorescent probe DCFH-DA solution diluted to 10 μM with serum-free DMEM medium was added. The plates were placed in the cell incubator and incubated in the dark for 30 min. Subsequently, the supernatant was removed and the cells were washed three times with phosphate-buffered saline (PBS). Finally, detection was carried out using a microplate reader (BioTek, Winooski, VT, USA) with an excitation wavelength of 488 nm and an emission wavelength of 525 nm.

For series [5], the system named is TNF-α expression in RAW 264.7 cells. Nature of the series: LPS-induced TNF-α expression by real time PCR. As to conditions: RAW 264.7, 0.3–10 μM, LPS 24 h. Type of series: cell-based, mouse. The protocol:
as §1, §2, §3

For series [6], the system named is IL-1β expression in RAW 264.7 cells. Nature of the series: LPS-induced IL-1β expression by real time PCR. As to conditions: RAW 264.7, 0.3–10 μM, LPS 24 h. Type of series: cell-based, mouse. The protocol: as §1, §2, §3
The subject of series [7] is IL-6 expression in RAW 264.7 cells. Nature of the series: LPS-induced IL-6 expression by real time PCR. Type of series: cell-based, mouse. The settings on record: RAW 264.7, 0.3–10 μM, LPS 24 h. Here is the method:
as §1, §2, §3
On the technique in general: In qPCR the cycle at which signal appears reflects the starting amount.

For series [8], the system named is nitric oxide production in LPS-stimulated RAW 264.7 macrophages. The series can be described thus: Inhibition of NO production in LPS-stimulated RAW 264.7 macrophages (Griess reaction). Type of series: cell-based, mouse. As to conditions: re-evaluation within 0.3–10 μM, RAW264.7, LPS. (Nitrite, measured by Griess reagent, commonly stands in for NO production.)
For the next series, the target named is T1, NF-κB p65 (Mus musculus, UniProt Q04207).
T1 construct: endogenous in cells; host or cells: RAW 264.7 murine macrophages, LPS-stimulated
The series can be described thus: DNA-binding activity of p65 (NF-κB p65 ELISA kit). Type of series: cell-based. The settings on record: 0.3–10 μM, p < 0.01 vs. LPS-only group. Here is the method:
To investigate the anti-inflammatory mechanism of compound 10, we quantified its inhibitory effect on the DNA-binding activity of p65 using a TransAM® NF-κB p65 ELISA kit (Ruixin Biotechnology, Guangzhou, China).
RAW 264.7 macrophages were seeded into 60 mm diameter culture dishes at a density of 3.0 × 10^6 cells/dish in complete DMEM and allowed to adhere for 2 h at 37 °C under 5% CO2. Cells were pretreated with Compound 10 (0.3–10 μM in DMSO, final solvent concentration < 0.1%) for 2 h, followed by stimulation with ultrapure LPS for an additional 2 h. The supernatant of cell culture medium was collected, and then NF-κB p65 binding activity of NF-κB in extracts was detected with NF-κB p65 kit (RUIXIN, Quanzhou, China).

Where [9] appears, read: RAW264.7, LPS-stimulated RAW 264.7 macrophages, LPS 100 ng/mL, 24 h.

T1 sequence (Q04207 whole entry): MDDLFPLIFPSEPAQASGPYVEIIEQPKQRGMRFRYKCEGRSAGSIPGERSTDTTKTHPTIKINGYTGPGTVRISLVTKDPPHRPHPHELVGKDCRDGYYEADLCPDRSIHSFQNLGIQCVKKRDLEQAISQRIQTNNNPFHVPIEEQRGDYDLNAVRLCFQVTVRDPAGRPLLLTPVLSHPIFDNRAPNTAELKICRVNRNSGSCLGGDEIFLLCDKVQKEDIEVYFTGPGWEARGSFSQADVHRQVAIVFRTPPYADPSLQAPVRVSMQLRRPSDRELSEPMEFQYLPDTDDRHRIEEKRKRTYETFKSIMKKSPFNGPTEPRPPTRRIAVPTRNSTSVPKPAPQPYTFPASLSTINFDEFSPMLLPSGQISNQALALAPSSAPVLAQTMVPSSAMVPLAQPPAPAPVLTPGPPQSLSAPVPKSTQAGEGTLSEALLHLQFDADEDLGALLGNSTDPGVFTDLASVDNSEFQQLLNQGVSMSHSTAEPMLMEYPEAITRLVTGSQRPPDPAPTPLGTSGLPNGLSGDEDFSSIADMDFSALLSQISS

As usually defined, the IC50 is the concentration that gives 50% inhibition. `C[C@@H]1CC[C@H]2C(C)(C)[C@H](O)CC[C@]2(C)[C@@]12Cc1c(O)cc3c(c1O2)CN(C(CCC(=O)O)C(=O)O)C3=O` (some centres unmarked) [Compound 13]: the IC50 in series [1] (setting [9]) came to 11.1 µM.
Turning to `CC(=O)O[C@@H]1[C@H](O)C[C@@]2(C)[C@@H](CC[C@@H](C)[C@]23Cc2c(O)cc(CO)c(C=O)c2O3)C1(C)C` [stachybotrysin C], the IC50 in [2] was 27.2 µM.
For the compound `COC(=O)CCCN1Cc2c(cc(O)c3c2O[C@]2(C3)[C@H](C)CC[C@H]3C(C)(C)[C@H](O)CC[C@@]32C)C1=O` [stachybonoid F], in series [2], the IC50 is 52.5 µM.
On to `C[C@@H]1CC[C@H]2C(C)(C)[C@H](O)[C@H](O)C[C@]2(C)[C@@]12Cc1c(O)cc3c(c1O2)CNC3=O` [Compound 14], for which the “cytotoxicity (qualitative)” value in the series on RAW 264.7 cells is listed as “low cytotoxicity”.
Still for that read-out and setting: under `C[C@@H]1CC[C@H]2C(C)(C)[C@H](O)CC[C@]2(C)[C@@]12Cc1c(O)cc3c(c1O2)CNC3=O` [Compound 15] stands “low cytotoxicity”.
Take `CCC(C)C(C(=O)O)N1Cc2c(cc(O)c3c2O[C@]2(C3)[C@H](C)CC[C@H]3C(C)(C)[C@H](O)[C@H](O)C[C@@]32C)C1=O` (some centres unmarked) [Compound 10]: the “LPS-induced iNOS mRNA expression” value in series [3] is reported as “significant suppression”. Also, in series [4], the ROS production result is recorded as “capable of inhibiting the production of ROS”. Besides, the TNF-α expression entry in [5] is listed as “dose-dependent attenuation”. Also, the IC50 in series [1] (setting [9]) stood at 12.4 µM. Also, in series [1], the “NO production inhibition at 10 μM” value is “potent inhibitory effects”. For the same compound, the IL-1β expression result in series [6] is “dose-dependent attenuation”. In addition, the IL-6 expression result in [7] is on record as “dose-dependent attenuation”. Besides, in series [8], the “inhibitory effect on NO production at 0.3 μM” value is reported as “potent inhibitory effect on NO production”. Also, in the series with RAW 264.7 cells (up to 30 μM (0.3–30 μM in the abstract, 3 to 30 μM)), the “cytotoxicity over the tested concentration range” value is given as “no detectable cytotoxicity”. Moreover, the “DNA-binding activity of p65” value on NF-κB p65 is listed as “significant suppression of p65 binding”.
On to `CC(C)CC(C(=O)O)N1Cc2c(cc(O)c3c2O[C@]2(C3)[C@H](C)CC[C@H]3C(C)(C)[C@H](O)CC[C@@]32C)C1=O` (some centres unmarked) [Compound 12], for which the IC50 in series [1] (RAW264.7, 24 h) was determined as 6.5 µM. Also, in series [1], the “NO production inhibition at 10 μM” value is listed as “potent inhibitory effects” and the NO-inhibitory effect result is “significant NO-inhibitory effects”. Moreover, the “cytotoxicity at 30 μM” value in the series on RAW 264.7 cells is given as “manifested cytotoxicity”.
For `C[C@@H]1CC[C@H]2C(C)(C)[C@H](O)CC[C@]2(C)[C@@]12Cc1c(O)cc3c(c1O2)COC3=O` [stachybotrylactone], the IC50 in [2] is 17.9 µM.
In the case of `C[C@@H]1CC[C@H]2C(C)(C)[C@H](O)[C@H](O)C[C@]2(C)[C@@]12Cc1c(O)cc3c(c1O2)CN(CCc1ccc(O)cc1)C3=O` [Compound 1, Chartarlactam U], the IC50 in series [1] (setting [9]) is 26.2 µM.
Turning to `CC(C)CC(C(=O)O)N1Cc2c(cc(O)c3c2O[C@]2(C3)[C@H](C)CC[C@H]3C(C)(C)[C@H](O)[C@H](O)C[C@@]32C)C1=O` (some centres unmarked) [Compound 11], the IC50 in series [1] (setting [9]) was found to be 4.4 µM. Further, in series [1], the “NO production inhibition at 10 μM” value was “potent inhibitory effects” and the NO-inhibitory effect result is listed as “significant NO-inhibitory effects”. Besides, the “cytotoxicity at 30 μM” value in the series on RAW 264.7 cells is on record as “manifested cytotoxicity”.
`CC1CCC2C(C)(C)C(O)C(O)CC2(C)C12Cc1c(O)cc3c(c1O2)C(=O)NC3=O` (centres unmarked) [Compound 3, Chartarlactam W]: the concentration for half-maximal inhibition (IC50) in series [1] (setting [9]) came out at 22.4 µM.
